# From PMC6821791, “Phase I Trial of Pyragrel, a Novel Thromboxane Synthetase Inhibitor, to Evaluate the Safety, Tolerability, and Pharmacokinetics in Healthy Volunteers” (Frontiers in Pharmacology, 2019)
# Values joined by “and” are separate entries in the source; they are usually repeats but may differ in a detail not shown here. Equal entries are not always repeated.
# Experiments:
# [1] = Preliminary pharmacodynamic studies of the metabolites; settings: data not shown
# Protocol: Based on the pharmacological activity, the pharmacokinetic characteristics of the metabolites were evaluated in the study.
# [2] = tested on: plasma TXB2 and 6-keto-PG1α; assay: Plasma TXB2 and 6-keto-PG1α by ELISA (Part IV); format: in vivo, human; settings: pyragrel 60, 120, 240 mg single i.v. dose; data not shown
# Protocol: (§1) Urinary levels of 11-D-HTXB2, the degree of platelet agglutination inhibition (DPAI), and the plasma levels of TXB2 and 6-keto-PG1α are considered effective indicators to confirm the antithrombotic effect of a drug candidate ([Uyama et al., 1985]; [Morio et al., 1993]). Therefore, we determined the inhibitory effect of pyragrel on all these three markers in Part IV after a single 3 h infusion dose of pyragrel (60, 120, or 240 mg). […] Similarly, the plasma levels of TXB2 and 6-keto-PG1α (stable metabolites of TXA2 and PGI2, respectively) were determined by ELISA since the decreased TXB2/6-keto- PG1α ratio indicates platelet aggregation and thrombosis inhibition ([Mizugaki et al., 1999]). […] Actually, levels of plasma TXB2 and 6-keto-PG1α are different between patients with cerebral ischemic and healthy subjects; with the limitation of small size for pharmacodynamic activity evaluation in the study, plus the significant reduction in urinary 11-D-HTXB2 level here, we recommended that a larger sample size, extensive phase II study should be performed in patients to further study the pharmacodynamic characteristic of pyragrel.
# [3] = dog, in vivo; cited from earlier work
# [4] = mice, daily 36 mg/kg injections for 4 days, cited from earlier work
# [5] = Safety assessment, adverse event monitoring (Parts I-V); format: in vivo, human
# Protocol: Safety was assessed using subject interviews and adverse event (AE) monitoring. All subjects received laboratory examinations after termination of drug infusion for 48 or 72 h; the examination items are the same as those listed in the screening process. If clinical abnormalities were present, further follow-ups were required until the laboratory test values or vital sign levels of the abnormal items returned to normal values or stable levels. The clinical significance of abnormal laboratory test values was determined by the physicians.
# (§2) The vital signs were analyzed by repeated measures analysis of variance (ANOVA), and laboratory indexes were analyzed by the paired t-test and one-way ANOVA. Comparison within different dose regimens of pyragrel or among different treatments (pyragrel, ozagrel, and placebo) or production of urinary 11-D-HTXB2 among groups was performed with the t-test, and expected values were considered along with the actual situation. Descriptive methods were used to compare the incidence of AE between pyragrel and ozagrel/placebo or in different pyragrel dose regimens; the normal/abnormal changes in laboratory examinations before and after administration were described.
# [6] = tested on: human umbilical vein endothelial cells (HUVEC); settings: in vitro; cited from earlier work
# [7] = tested on: platelet agglutination inducted by adenosine diphosphate (ADP) and arachidonic acid (AA); assay: Platelet agglutination inducted by ADP and AA (Part IV); format: in vivo, human; settings: single 3 h infusion of pyragrel 60, 120 or 240 mg, data not shown
# Protocol: as §1
# [8] = tested on: urinary 11-D-HTXB2 (indicator of TXA2 production); assay: Urinary 11-D-HTXB2 production by ELISA (Part IV); format: in vivo, human; settings: for Urinary 11-D-HTXB2 (standardized by urine creatinine): Part IV
# Protocol: […] […] Production of 11-dehydro-thrombxane B2 (11-D-HTXB2) in urine sample was detected by ELISA method.
# as §2
# Given that 11-dehydrothromboxane B2 (11-D-HTXB2) is considered a reliable indicator of TXA2 production in humans and several animal models ([Morio et al., 1993]; [Yamanaka et al., 1993]), we preliminarily measured the production of urinary 11-D-HTXB2 as a maker for evaluating the TXA2 inhibition activity of pyragrel in three dose groups (60, 120, or 240 mg) in Part IV. […] ( Table 9 ).
# [9] = Part II, pyragrel 240 mg in 250 ml saline
# [10] = Part III, multiple doses of pyragrel 180 mg
# [11] = Part IV, pyragrel 60, 120, 240 mg crossover
# [12] = Part V, pyragrel 360 mg in 24 h
compound,measurement,setting,value
COc1cc(CCC(=O)O)ccc1OCc1nc(C)c(C)nc1C [BBS],Antiplatelet and antithrombotic effects,[1],weak
"COc1cc(C=CC(=O)[O-])ccc1OCc1nc(C)c(C)nc1C.[Na+] [Pyragrel, sodium pyragrel]",Plasma 6-keto-PG1α,[2],increase
same,Plasma TXB2,[2],decreased
same,Maximum safe dose,[3],> 12.5 mg/kg/day
same,"Bleeding time, lower than with ozagrel",[4]; P < 0.01,35%
same,"Prolongation of coagulation time, pyragrel vs ozagrel",[4],comparable
same,AE incidence rate (IR),"[5]; Part I, 36 pyragrel-treated subjects, 8 subjects of ozagrel treatment",33.3%
same,AE Type,"[5]; Part I, pyragrel 30 mg","DB elevation, palpitation"
same,Number of AEs,"[5]; Part I, pyragrel 30 mg",2
same,AE Type,"[5]; Part I, pyragrel 60 mg","Leucocytes increase, positive urine protein"
same,Number of AEs,"[5]; Part I, pyragrel 60 mg",2
same,AE Type,"[5]; Part I, pyragrel 120 mg",DB elevation
same,Number of AEs,"[5]; Part I, pyragrel 120 mg",1
same,AE Type,"[5]; Part I, pyragrel 180 mg","DB elevation (2), ventosity"
same,Number of AEs,"[5]; Part I, pyragrel 180 mg",3
same,AE Type,"[5]; Part I, pyragrel 240 mg",APTT extension
same,Number of AEs,"[5]; Part I, pyragrel 240 mg",2
same,AE Type,"[5]; Part I, pyragrel 300 mg","Lower hemoglobin, total bile acid increase"
same,Number of AEs,"[5]; Part I, pyragrel 300 mg",2
same,AE Type,[5]; [9],DB/TB elevation
same,Number of AEs,[5]; [9],2
same,AE incidence rate (IR),"[5]; Part II, pyragrel 240 mg in 250 ml saline, 2/4",50%
same,AE Type,[5]; [10],"DB/TB elevation, alanine aminotransferase elevated, abdominal pain, headache, low blood potassium, urine frequency, fecal OBT+."
same,Number of AEs,[5]; [10],12
same,AE Type,[5]; [11],"Dizziness, TB/DB elevation, transient left tinnitus, double upper arm papules, fatigue"
same,Number of AEs,[5]; [11],8
same,AE incidence,"[5]; Part V, continuous infusion, 1/4",25.0%
same,AE Type,[5]; [12],DB elevation
same,Number of AEs,[5]; [12],1
same,"Severe AEs, in words",[5]; Parts I-V,No severe AEs occurred
same,Number of AEs,"[5]; Total, Parts I-V",35
same,Incidence of elevation in conjugated bilirubin (DB elevation),"[5]; all parts, 12/68 subjects of pyragrel, 2/8 subjects of ozagrel",17.6%
same,"Tolerability, in words","[5]; single i.v. infusion up to 300 mg, multiple dose 180 mg, prolonged infusion 360 mg within 24 h",well tolerated
same,Effect against inflammatory induced HUVEC injury,[6],significant protective effects
same,Platelet agglutination inducted by ADP and AA,[7],slightly inhibited
same,Duration of the inhibitory effect on 11-D-HTXB2 production,"[8]; 120- and 240-mg group, P<0.05 vs preadministration",at least 12 h
same,Urinary 11-D-HTXB2 (standardized by urine creatinine),"[8]; 60 mg/kg group, 0–3 h after administration",37.83 ± 4.85 pg/mL
same,Urinary 11-D-HTXB2 (standardized by urine creatinine),"[8]; 60 mg/kg group, 3–4 h after administration",36.64 ± 4.15 pg/mL
same,Urinary 11-D-HTXB2 (standardized by urine creatinine),"[8]; 60 mg/kg group, 4–8 h after administration",35.05 ± 4.51 pg/mL
same,Urinary 11-D-HTXB2 (standardized by urine creatinine),"[8]; 60 mg/kg group, 8–12 h after administration, 60 mg/kg",34.77 pg/mL and 34.77 ± 4.16 pg/mL
same,Urinary 11-D-HTXB2 (standardized by urine creatinine),"[8]; 60 mg/kg group, 12–24 h after administration, 60 mg/kg",35.17 pg/mL and 35.17 ± 4.63 pg/mL
same,Urinary 11-D-HTXB2 (standardized by urine creatinine),"[8]; 120 mg/kg group, 0–3 h after administration",37.06 ± 5.00 pg/mL
same,Urinary 11-D-HTXB2 (standardized by urine creatinine),"[8]; 120 mg/kg group, 3–4 h after administration",35.85 ± 4.40 pg/mL
same,Urinary 11-D-HTXB2 (standardized by urine creatinine),"[8]; 120 mg/kg group, 4–8 h after administration",33.03 ± 5.00 pg/mL
same,Urinary 11-D-HTXB2 (standardized by urine creatinine),"[8]; 120 mg/kg group, 8–12 h after administration",31.45 ± 4.88 pg/mL
same,Urinary 11-D-HTXB2 (standardized by urine creatinine),"[8]; 120 mg/kg group, 12–24 h after administration",32.14 ± 5.17 pg/mL
same,Urinary 11-D-HTXB2 (standardized by urine creatinine),"[8]; 240 mg group, 0–3 h after administration",36.40 ± 4.68 pg/mL
same,Urinary 11-D-HTXB2 (standardized by urine creatinine),"[8]; 240 mg group, 3–4 h after administration",35.37 ± 4.60 pg/mL
same,Urinary 11-D-HTXB2 (standardized by urine creatinine),"[8]; 240 mg group, 4–8 h after administration",33.10 ± 4.31 pg/mL
same,Urinary 11-D-HTXB2 (standardized by urine creatinine),"[8]; 240 mg group, 8–12 h after administration, 240 mg/kg",30.72 pg/mL and 30.72 ± 4.38 pg/mL
same,Urinary 11-D-HTXB2 (standardized by urine creatinine),"[8]; 240 mg group, 12–24 h after administration, 240 mg/kg",31.37 pg/mL and 31.37 ± 3.79 pg/mL
same,"Production of urinary 11-D-HTXB2, effect in words","[8]; single infusion of pyragrel 60, 120 or 240 mg",time- and dose-dependently inhibited
